Test [1] is described as follows: Antioxidant activity assessed as hydroxyl ion scavenging activity measured as MDA formation at 200 ug/ml after 90 mins by spectrophotometry relative to control. The test is classed as functional.
In test [2] the test system is Rattus norvegicus. The test can be described thus: Antidyslipidemic activity in triton-induced hyperlipidemic Charles Foster rat assessed as reduction in triglyceride in plasma at 100 mg/kg, po relative to control. The test is classed as functional. More on the design: scale not given: the % may be the effect or the level left.
Test [3] relates to Rattus norvegicus. The test can be described thus: Antidyslipidemic activity in triton-induced hyperlipidemic Charles Foster rat assessed as reduction in total cholesterol in plasma at 100 mg/kg, po relative to control. The test is classed as functional. Also noted: scale not given: the % may be the effect or the level left.
Test [4] relates to Rattus norvegicus. In words: Antidyslipidemic activity in triton-induced hyperlipidemic Charles Foster rat assessed as plasma post heparin lipolytic activity at 100 mg/kg, po relative to control. The test is classed as functional.
Test [5] deals with Rattus norvegicus. In words: Antidyslipidemic activity in triton-induced hyperlipidemic Charles Foster rat assessed as reduction in phospholipid in plasma at 100 mg/kg, po relative to control. The format is functional. More on the design: scale not given: the % may be the effect or the level left.
Test [6] has as its system Rattus norvegicus. The test can be described thus: Antidyslipidemic activity in triton-induced hyperlipidemic Charles Foster rat assessed as reduction in total cholesterol in plasma at 50 to 150 mg/kg, po relative to control. The test is classed as functional. Also noted: scale not given: the % may be the effect or the level left. Conditions: dose mg/kg 50-150.
For test [7], the system named is Rattus norvegicus. The test can be described thus: Antidyslipidemic activity in triton-induced hyperlipidemic Charles Foster rat assessed as reduction in triglyceride in plasma at 50 to 150 mg/kg, po relative to control. The format is functional. More on the design: scale not given: the % may be the effect or the level left. The settings on record: dose mg/kg 50-150.

Test [8] relates to Rattus norvegicus. In words: Antidyslipidemic activity in triton-induced hyperlipidemic po dosed Charles Foster rat assessed as reduction in LDL in plasma relative to control. The format is functional, organism-based.
Test [9] in a line: Antioxidant activity assessed as superoxide ion scavenging activity measured as formazone formation at 200 ug/ml after 90 mins by spectrophotometry relative to control. The format is functional.
For test [10], the system named is Rattus norvegicus. In words: Antidyslipidemic activity in triton-induced hyperlipidemic Charles Foster rat assessed as reduction in phospholipid in plasma at 50 to 150 mg/kg, po relative to control. The format is functional. Also noted: scale not given: the % may be the effect or the level left. Conditions: dose mg/kg 50-150.
Test [11] can be described thus: Antioxidant activity assessed as suppression of microsomal lipid peroxidation measured as MDA formation at 200 ug/ml after 90 mins by spectrophotometry relative to control. The format is functional.
Test [12] has as its system Rattus norvegicus. In words: Antidyslipidemic activity in triton-induced hyperlipidemic po dosed Charles Foster rat assessed as increase in HDL in plasma relative to control. The format is functional, organism-based.
The test system of test [13] is Rattus norvegicus. The test can be described thus: Antidyslipidemic activity in triton-induced hyperlipidemic Charles Foster rat assessed as increase in total lipolytic activity of lipoprotein lipase at 100 mg/kg, po relative to control. The format is functional, organism-based. More on the design: dose 100 mg/kg.
Test [14] has as its system Rattus norvegicus. In words: Antidyslipidemic activity in triton-induced hyperlipidemic po dosed Charles Foster rat assessed as reduction in VLDL in plasma relative to control. The test is classed as functional, organism-based.

The source made the active and inactive calls. The calls are words filed in the database; no cut-off is given here.

Regarding `OC[C@@H](O)[C@@H](O)[C@H](O)[C@H](O)CO`, the Activity in [1] was determined as 53%.

As for `CCOC(=O)C(C)Oc1ccc(C(=O)/C=C/c2c[nH]c3ccc(Cl)cc23)cc1` (stereo unspecified), the Activity in the test with Rattus norvegicus [2] is listed as 13%; with Rattus norvegicus [3], 11%; in the test on Rattus norvegicus [4], 7%; in the test with Rattus norvegicus [5] it was 15%.

`CCC(Oc1ccc(C(=O)/C=C/c2c(C)[nH]c3ccccc23)cc1)C(=O)OC` (stereo unspecified): the Activity amounted to 14% with Rattus norvegicus [6]; 15% in the test on Rattus norvegicus [7]; 27% with Rattus norvegicus [2]; 26% in the test on Rattus norvegicus [3]; 16% with Rattus norvegicus [4]; 24% in the test with Rattus norvegicus [5]. Besides, the Activity was found to be 27% in test [9], 17% in the test with Rattus norvegicus [10], 28% in [11] and 29% in [1]. The outcome in the test on Rattus norvegicus [8], with Rattus norvegicus [12], in the test on Rattus norvegicus [13] and in the test with Rattus norvegicus [14] was Active.

In the case of `CCOC(=O)C(C)Oc1ccc(C(=O)/C=C/c2c[nH]c3ccc(OC)cc23)cc1` (stereo unspecified), the Activity came out at 10% with Rattus norvegicus [2], 11% in the test with Rattus norvegicus [3], 6% with Rattus norvegicus [4] and 13% in the test on Rattus norvegicus [5].

Take `Cc1c(C)c2c(c(C)c1O)CC[C@@](C)(CCC[C@H](C)CCC[C@H](C)CCCC(C)C)O2`: the Activity in [11] was 46%.

Take `CCOC(=O)C(C)(C)Oc1ccc(C(=O)/C=C/c2c[nH]c3ccccc23)cc1`: the Activity came out at 22% in the test on Rattus norvegicus [2]; 20% with Rattus norvegicus [3]; 14% in the test on Rattus norvegicus [4]; 22% in the test on Rattus norvegicus [5]; 33% in test [9]; 36% in test [11]. Besides, the Activity in [1] was found to be 38%.

For the molecule `CCOC(=O)C(CC)Oc1ccc(C(=O)/C=C/c2c(C)[nH]c3ccccc23)cc1` (stereo unspecified), the Activity in the test with Rattus norvegicus [2] worked out at 22%; with Rattus norvegicus [3] it was 20%; with Rattus norvegicus [4], 14%; with Rattus norvegicus [5], 22%.

As to `CCOC(=O)CCCOc1ccc(C(=O)/C=C/c2c[nH]c3ccccc23)cc1`, the Activity stood at 22% in the test with Rattus norvegicus [6]; 20% in the test on Rattus norvegicus [7]; 30% in the test on Rattus norvegicus [2]; 31% with Rattus norvegicus [3]; 19% in the test on Rattus norvegicus [4]; 32% in the test with Rattus norvegicus [5]. In addition, the Activity turned out to be 31% in [9], 20% in the test on Rattus norvegicus [10], 35% in test [11] and 37% in [1]. In addition, the result in the test on Rattus norvegicus [8], in the test with Rattus norvegicus [12], with Rattus norvegicus [13] and in the test with Rattus norvegicus [14] was Active.

As for `CC(C)OC(=O)C(C)(C)Oc1ccc(C(=O)c2ccc(Cl)cc2)cc1` [FENOFIBRATE], the Activity in the test with Rattus norvegicus [2] was determined as 33%; with Rattus norvegicus [3] it was 32%; with Rattus norvegicus [4] it was 19%; in the test on Rattus norvegicus [5], 30%. Further, the outcome with Rattus norvegicus [13] was Active.

As for `COC(=O)C(C)(C)Oc1ccc(C(=O)/C=C/c2c(C)[nH]c3ccccc23)cc1`, the Activity in the test on Rattus norvegicus [2] is reported as 10%; with Rattus norvegicus [3] it was 10%; in the test on Rattus norvegicus [4], 6%; in the test with Rattus norvegicus [5], 12%.

Take `Oc1ncnc2[nH]ncc12`: in test [9], the Activity was found to be 49%.

Turning to `CCOC(=O)C(CC)Oc1ccc(C(=O)/C=C/c2c[nH]c3ccc(Cl)cc23)cc1` (stereo unspecified), the Activity with Rattus norvegicus [2] is listed as 16%; with Rattus norvegicus [3], 18%; in the test with Rattus norvegicus [4] it was 13%; in the test with Rattus norvegicus [5], 16%.

With `CCOC(=O)C(C)Oc1ccc(C(=O)/C=C/c2c[nH]c3ccccc23)cc1` (stereo unspecified), the Activity is 12% in the test with Rattus norvegicus [2], 15% in the test on Rattus norvegicus [3], 8% with Rattus norvegicus [4] and 13% with Rattus norvegicus [5].

With `COC(=O)C(C)Oc1ccc(C(=O)/C=C/c2c[nH]c3ccccc23)cc1` (stereo unspecified), the Activity was determined as 12% with Rattus norvegicus [2], 13% in the test on Rattus norvegicus [3], 6% in the test on Rattus norvegicus [4] and 14% in the test with Rattus norvegicus [5].

As to `COC(=O)CCCOc1ccc(C(=O)/C=C/c2c[nH]c3ccc(OC)cc23)cc1`, the Activity in the test on Rattus norvegicus [2] is reported as 14%; with Rattus norvegicus [3] it was 13%; in the test on Rattus norvegicus [4] it was 7%; with Rattus norvegicus [5] it was 11%.

In the case of `COC(=O)CCCOc1ccc(C(=O)/C=C/c2c(C)[nH]c3ccccc23)cc1`, the Activity amounted to 16% in the test on Rattus norvegicus [2], 15% in the test with Rattus norvegicus [3], 9% in the test on Rattus norvegicus [4] and 18% in the test with Rattus norvegicus [5].

With `COC(=O)C(C)Oc1ccc(C(=O)/C=C/c2c[nH]c3ccc(Cl)cc23)cc1` (stereo unspecified), the Activity worked out at 17% in the test on Rattus norvegicus [2], 12% in the test on Rattus norvegicus [3], 3% with Rattus norvegicus [4] and 14% in the test with Rattus norvegicus [5].

Regarding `COC(=O)CCCOc1ccc(C(=O)/C=C/c2c[nH]c3ccc(Cl)cc23)cc1`, the Activity in the test on Rattus norvegicus [2] is recorded as 10%; in the test with Rattus norvegicus [3] it was 10%; in the test with Rattus norvegicus [4], 4%; with Rattus norvegicus [5], 11%.

Regarding `CCOC(=O)C(C)(C)Oc1ccc(C(=O)/C=C/c2c(C)[nH]c3ccccc23)cc1`, the Activity in the test on Rattus norvegicus [6] is 24%; in the test on Rattus norvegicus [7], 25%; in the test with Rattus norvegicus [2] it was 30%; with Rattus norvegicus [3], 32%; with Rattus norvegicus [4] it was 20%; in the test with Rattus norvegicus [5], 33%. Besides, the Activity in test [9] was determined as 36%; in the test on Rattus norvegicus [10] it was 26%; in test [11] it was 40%; in [1], 41%. Moreover, the outcome in the test with Rattus norvegicus [8], in the test on Rattus norvegicus [12], in the test with Rattus norvegicus [13] and in the test on Rattus norvegicus [14] was Active.

For the molecule `CCOC(=O)CCCOc1ccc(C(=O)/C=C/c2c(C)[nH]c3ccccc23)cc1`, the Activity in the test with Rattus norvegicus [2] came to 14%; with Rattus norvegicus [3], 13%; with Rattus norvegicus [4], 7%; with Rattus norvegicus [5] it was 16%.

For `CCC(Oc1ccc(C(=O)/C=C/c2c[nH]c3ccccc23)cc1)C(=O)OC` (stereo unspecified), the Activity in the test on Rattus norvegicus [2] is on record as 9%; in the test with Rattus norvegicus [3] it was 8%; in the test on Rattus norvegicus [4], 3%; in the test on Rattus norvegicus [5], 8%.

`COC(=O)CCCOc1ccc(C(=O)/C=C/c2c[nH]c3ccccc23)cc1`: the Activity stood at 22% in the test on Rattus norvegicus [2]; 20% in the test with Rattus norvegicus [3]; 14% in the test with Rattus norvegicus [4]; 22% with Rattus norvegicus [5]; 26% in test [9]; 30% in test [11]. The Activity in [1] came out at 32%.

(Values after ChEMBL document CHEMBL3259778, “Design and synthesis of novel indole-chalcone fibrates as lipid lowering agents” (2014).)
